Literature values, collected in PubChem BioAssay AID1259409 (Chemical Carcinogenesis Research Information System (CCRIS), 2018).

System: rodent chemically induced tumor inhibition, incidence and multiplicity
Assay: CCRIS tumor inhibitor studies

C=CCSC[C@H](N)C(=O)O
outcome (Carcinogen: 7,12-DIMETHYLBENZ[A]ANTHRACENE (57-97-6), Dose [Inhibitor]: 0, 200 MG/KG ON ALTERNATE DAYS FOR 14 WK (STUDY DURATION: 14 WK), Route [Inhibitor]: ORAL, Species: HAMSTER, Strain/Sex: SYRIAN/MALE, Target Tissue: Type of Lesion: BUCCAL POUCH: SQUAMOUS CELL CARCINOMA, Dose [Carcinogen]: 0.5% IN LIQUID PARAFFIN TO RIGHT BUCCAL POUCH, ALTERNATE DAYS FOR 14 WK, Promoter: NONE USED): 10, 0, 100%, not calculated | tumour outcome (control, treated, inhibition, significance) (Carcinogen: N-METHYL-N'-NITRO-N-NITROSOGUANIDINE [70-25-7], Dose [Inhibitor]: 200 MG/KG 3X/WK BEGINNING ON DAY 1 (STUDY DURATION: 21 WK), Route [Inhibitor]: GAVAGE, Species: RAT, Strain/Sex: WISTAR/MALE, Target Tissue: Type of Lesion: STOMACH: CARCINOMA, Dose [Carcinogen]: 200 MG/KG BW ONCE ON DAYS 0 AND 14, Promoter: SODIUM CHLORIDE [7647-14-5]): 6/6 (100%), 0/6 (0%), 100%, not determined | tumour outcome (control, treated, inhibition, significance) (Carcinogen: N-METHYL-N-NITROSOUREA, 684-93-5, Dose [Inhibitor]: 0, 57 UMOL/KG DIET FOR 25 WK BEGINNING 2 WK PRIOR TO CARCINOGEN DOSE (STUDY DURATION: 25 WK), Route [Inhibitor]: ORAL, Species: RAT, Strain/Sex: SPRAGUE-DAWLEY/FEMALE, Target Tissue: Type of Lesion: MAMMARY GLAND: TUMOR, Dose [Carcinogen]: 15 MG/KG BW ONCE, Promoter: NONE USED): 81%, 48%, 41%, p<0.05

CCCCCCCCCC
tumour outcome (control, treated, inhibition, significance) (Carcinogen: BENZO[A]PYRENE, 50-32-8, Dose [Inhibitor]: 25 MG IN 0.1 ML ACETONE 3/WK ADMINISTERED SIMULTANEOUSLY WITH CARCINOGEN FOR DU RATION OF STUDY (STUDY DURATION: 440 D), Route [Inhibitor]: DERMAL, Species: MOUSE, Strain/Sex: ICR/FEMALE, Target Tissue: Type of Lesion: SKIN: SQUAMOUS CARCINOMA, Dose [Carcinogen]: 5 UG IN 0.1 ML ACETONE 3/WK FOR DURATION OF STUDY, Promoter: NONE USED): 12/50 (24%), 34/50 (68%), -183%, not calculated | tumour outcome (control, treated, inhibition, significance) (Carcinogen: BENZO[A]PYRENE, 50-32-8, Dose [Inhibitor]: 25 MG IN 0.1 ML ACETONE 3/WK ADMINISTERED SIMULTANEOUSLY WITH CARCINOGEN FOR DURATION OF STUDY (STUDY DURATION: 440 D), Route [Inhibitor]: DERMAL, Species: MOUSE, Strain/Sex: ICR/FEMALE, Target Tissue: Type of Lesion: SKIN: PAPILLOMA, Dose [Carcinogen]: 5 UG IN 0.1 ML ACETONE 3/WK FOR DURATION OF STUDY, Promoter: NONE USED): 16/50 (32%), 38/50 (76%), -138%, not calculated

CO[C@@H]1[C@H](OC(=O)NC(=O)CCl)CC[C@]2(CO2)[C@H]1[C@@]1(C)O[C@@H]1CC=C(C)C
tumour outcome (control, treated, inhibition, significance) (Carcinogen: N-METHYL-N-NITROSOUREA, 684-93-5, Dose [Inhibitor]: 0, 1 UG/ML IN URINE 1/WK FOR 10 WK INSTILLED INTO HETEROTROPICALLY TRANSPLANTED BLADDER BEGINNING 21 WK POST CARCINOGEN, Route [Inhibitor]: INTRAVESICULAR, Species: RAT, Strain/Sex: F344/MALE, Target Tissue: Type of Lesion: BLADDER: TUMOR, Dose [Carcinogen]: 0.25 MG IN 0.5 ML OF 0.9% SALINE INSTILLED INTO HETEROTROPICALLY TRANSPLANTED BLADDER ONCE, Promoter: NONE USED): 24/38 (63%), 9/24 (38%), 40%, p=0.08 | tumour outcome (control, treated, inhibition, significance) (Carcinogen: N-METHYL-N-NITROSOUREA, 684-93-5, Dose [Inhibitor]: 0, 1 UG/ML IN URINE 1/WK FOR 27 WK INSTILLED INTO HETEROTROPICALLY TRANSPLANTED BLADDER BEGINNING 4 WK POST CARCINOGEN D, Route [Inhibitor]: INTRAVESICULAR, Species: RAT, Strain/Sex: F344/MALE, Target Tissue: Type of Lesion: BLADDER: TUMOR, Dose [Carcinogen]: 0.25 MG IN 0.5 ML OF 0.9% SALINE INSTILLED INTO HETEROTROPICALLY TRANSPLANTED BLADDER ONCE, Promoter: NONE USED): 24/38 (63%), 14/37 (38%), 40%, p<0.05

CC(C)c1cc(C(=O)O)c([O-])c(C(C)C)c1.CC(C)c1cc(C(=O)O)c([O-])c(C(C)C)c1.[Cu+2]
tumour outcome (control, treated, inhibition, significance) (Carcinogen: 7,12-DIMETHYLBENZ[A]ANTHRACENE, 57-97-6, Dose [Inhibitor]: 500 NMOL IN 0.2 ML ACETONE APPLIED ONCE TO DORSAL SKIN 15 MIN PRIOR TO CARCINOGEN DOSE (STUDY DURATION: 20 WK), Route [Inhibitor]: DERMAL, Species: MOUSE, Strain/Sex: SENCAR/FEMALE, Target Tissue: Type of Lesion: SKIN: PAPILLOMA, Dose [Carcinogen]: 10 NMOL IN 0.2 ML ACETONE ONCE): 100%, 100%, 0%, not significant | tumour outcome (control, treated, inhibition, significance) (Carcinogen: 7,12-DIMETHYLBENZ[A]ANTHRACENE, 57-97-6, Dose [Inhibitor]: 1000 NMOL IN 0.2 ML ACETONE APPLIED ONCE TO DORSAL SKIN 15 MIN PRIOR TO CARCINOGEN DOSE (STUDY DURATION: 20 WK), Route [Inhibitor]: DERMAL, Species: MOUSE, Strain/Sex: SENCAR/FEMALE, Target Tissue: Type of Lesion: SKIN: PAPILLOMA, Dose [Carcinogen]: 10 NMOL IN 0.2 ML ACETONE ONCE): 100%, 100%, 0%, not significant | tumour outcome (control, treated, inhibition, significance) (Carcinogen: 7,12-DIMETHYLBENZ[A]ANTHRACENE, 57-97-6, Dose [Inhibitor]: 2000 NMOL IN 0.2 ML ACETONE APPLIED ONCE TO DORSAL SKIN 15 MIN PRIOR TO CARCINOGEN DOSE (STUDY DURATION: 20 WK), Route [Inhibitor]: DERMAL, Species: MOUSE, Strain/Sex: SENCAR/FEMALE, Target Tissue: Type of Lesion: SKIN: PAPILLOMA, Dose [Carcinogen]: 10 NMOL IN 0.2 ML ACETONE ONCE): 100%, 100%, 0%, not significant | tumour outcome (control, treated, inhibition, significance) (Carcinogen: BENZO[A]PYRENE, 50-32-8, Dose [Inhibitor]: 100 NMOL IN 0.2 ML ACETONE APPLIED ONCE TO DORSAL SKIN 15 MIN PRIOR TO CARCINOGEN DOSE (STUDY DURATION: 20 WK), Route [Inhibitor]: DERMAL, Species: MOUSE, Strain/Sex: SENCAR/FEMALE, Target Tissue: Type of Lesion: SKIN: PAPILLOMA, Dose [Carcinogen]: 200 NMOL IN 0.2 ML ACETONE ONCE): 97%, 93%, 4%, not calculated | tumour outcome (control, treated, inhibition, significance) (Carcinogen: BENZO[A]PYRENE, 50-32-8, Dose [Inhibitor]: 500 NMOL IN 0.2 ML ACETONE APPLIED ONCE TO DORSAL SKIN 15 MIN PRIOR TO CARCINOGEN DOSE (STUDY DURATION: 20 WK), Route [Inhibitor]: DERMAL, Species: MOUSE, Strain/Sex: SENCAR/FEMALE, Target Tissue: Type of Lesion: SKIN: PAPILLOMA, Dose [Carcinogen]: 200 NMOL IN 0.2 ML ACETONE ONCE): 97%, 93%, 4%, not calculated | tumour outcome (control, treated, inhibition, significance) (Carcinogen: BENZO[A]PYRENE, 50-32-8, Dose [Inhibitor]: 1000 NMOL IN 0.2 ML ACETONE APPLIED ONCE TO DORSAL SKIN 15 MIN PRIOR TO CARCINOGEN DOSE (STUDY DURATION: 20 WK), Route [Inhibitor]: DERMAL, Species: MOUSE, Strain/Sex: SENCAR/FEMALE, Target Tissue: Type of Lesion: SKIN: PAPILLOMA, Dose [Carcinogen]: 200 NMOL IN 0.2 ML ACETONE ONCE): 97%, 100%, -3%, not calculated | tumour outcome (control, treated, inhibition, significance) (Carcinogen: BENZO[A]PYRENE, 50-32-8, Dose [Inhibitor]: 2000 NMOL IN 0.2 ML ACETONE APPLIED ONCE TO DORSAL SKIN 15 MIN PRIOR TO CARCINOGEN DOSE (STUDY DURATION: 20 WK), Route [Inhibitor]: DERMAL, Species: MOUSE, Strain/Sex: SENCAR/FEMALE, Target Tissue: Type of Lesion: SKIN: PAPILLOMA, Dose [Carcinogen]: 200 NMOL IN 0.2 ML ACETONE ONCE): 97%, 90%, 7%, not calculated | tumour outcome (control, treated, inhibition, significance) (Carcinogen: BENZO[A]PYRENE, 50-32-8, Dose [Inhibitor]: 4000 NMOL IN 0.2 ML ACETONE APPLIED ONCE TO DORSAL SKIN 15 MIN PRIOR TO CARCINOGEN DOSE (STUDY DURATION: 20 WK), Route [Inhibitor]: DERMAL, Species: MOUSE, Strain/Sex: SENCAR/FEMALE, Target Tissue: Type of Lesion: SKIN: PAPILLOMA, Dose [Carcinogen]: 200 NMOL IN 0.2 ML ACETONE ONCE): 97%, 96%, 0.3%, not calculated
